Source: patent US20150148234A1, “HERBICIDE-RESISTANT SUNFLOWER PLANTS WITH MULTIPLE HERBICIDE RESISTANT ALLELES OF AHASL1 AND METHODS OF USE” (NIDERA S.A., priority 2013, published 2015)
Where “and” joins values, the source holds several entries; their conditions need not be identical. Identical values can stand only once. Marks after values point to notes of the source that are not given here.

Legend:
Experiment in all cases: metsulfuron whole plant greenhouse test (Example 5)
Type in all cases: in vivo
[1] = tested on: sunflower cmsGM40xL4, A122T/A122T; conditions: 14 DAT; for Dry Matter accumulation (DMA) / Mean Height Reduction (PH): percentage of untreated control
Procedure: (§1) Seeds were sown in Petri dishes and, after germination, plantlets were transplanted into 10 cm pots containing potting media consisting of equal parts of vermiculite, soil, and sand. Plants were grown in the greenhouse under natural light conditions supplemented with 400 W sodium halide lamps to provide a 16 hr daylength. Day/night temperatures were 25 and 20° C., respectively. At the V2-V4 stage (Schneiter & Miller, 1981) 20 plants of each genotype were randomly assigned to each treatment consisting of three metsulfuron methyl doses (0 or no treatment, 5 g ai/ha or a 1× rate, and 10 g ai/ha or a 2× rate). A zero-time biomass determination was also conducted. The experiment was arranged as a randomized complete block design (RCBD) with a full factorial arrangement of treatments and 20 replications (sunflower line×treatment).
(§2) For the zero-time dried weight determination, ten plants of each genotype were cut at the cotyledonal node on the day of herbicide application and dried at 60° C. for 48 hr. The rest of the plants were maintained for 14 days after herbicide treatment (DAT) and their height, Phytotoxicity Index (PI) and above ground dry biomass were recorded. Height was determined as the distance between the cotyledonal node and the apex of each plant. The above ground biomass data for each line was converted to biomass accumulation after application by subtracting the appropriate average zero-time biomass from each sample. Height and dry biomass were converted to a percentage of the untreated control for each line to allow direct comparisons between groups.
(§3) The data was subjected to an ANOVA and the means were compared by an LSD test.

[2] = tested on: sunflower line BTSu-R1, P197L/P197L; conditions: 14 DAT, percentage of untreated control
Procedure: as §1, §2, §3

sunflower line B770, WT = conditions: 14 DAT
Procedure: as §1, §2, §3

[3] = tested on: sunflower line GM1606, A122T/A122T; conditions: 14 DAT; for Dry Matter accumulation (DMA) / Mean Height Reduction (PH): percentage of untreated control
Procedure: as §1, §2, §3

[4] = tested on: sunflower line L4, A122T/A122T; conditions: 14 DAT; for Dry Matter accumulation (DMA) / Mean Height Reduction (PH): percentage of untreated control
Procedure: as §1, §2, §3

[5] = tested on: sunflower line GM40, A122T/A122T; conditions: 14 DAT; for Dry Matter accumulation (DMA) / Mean Height Reduction (PH): percentage of untreated control
Procedure: as §1, §2, §3

[6] = tested on: sunflower cmsGM40xBTSu-R1, A122T/P197L; conditions: 14 DAT; for Dry Matter accumulation (DMA) / Mean Height Reduction (PH): percentage of untreated control
Procedure: as §1, §2, §3

[7] = 2X (10 g ai./ha), percentage of untreated control

COC(=O)c1ccccc1S(=O)(=O)NC(=O)Nc1nc(C)nc(OC)n1 [metsulfuron]
Phytotoxicity Index (PI) (0-9) ([1]; 1X (5g ai./ha)): 8.67 ^d | Dry Matter accumulation (DMA) ([1]; 1X (5g ai./ha)): 19.90 ^a % | Mean Height Reduction (PH) ([1]; 1X (5g ai./ha)): 22.45 ^a % | Phytotoxicity Index (PI) (0-9) ([1]; 2X (10 g ai./ha)): 8.82 ^cd | Dry Matter accumulation (DMA) ([1]; 2X (10 g ai./ha)): 18.23 ^a % | Mean Height Reduction (PH) ([1]; 2X (10 g ai./ha)): 20.56 ^a % | Dry Matter accumulation (DMA) ([2]; 1X (5g ai./ha)): 88% and 88.1% and 88.10 ^d % | Plant height, % of untreated control ([2]; 1X (5g ai./ha)): 79.01 ^b % | Dry Matter accumulation (DMA) ([2]; 2X (10 g ai./ha)): 77% and 76.69 ^c % | Plant height, % of untreated control ([2]; 2X (10 g ai./ha)): 80.85 ^c % | Phytotoxicity Index (PI) (0-9) (sunflower line B770, WT; 1X (5g ai./ha)): 8.50 ^bc | Dry Matter accumulation (DMA) (sunflower line B770, WT; 1X (5g ai./ha), percentage of untreated control): 28.43 ^b % | Phytotoxicity Index (PI) (0-9) (sunflower line B770, WT; 2X (10 g ai./ha)): 9.00 ^d | Dry Matter accumulation (DMA) (sunflower line B770, WT; [7]): 28.77 ^b % | Mean Height Reduction (PH) (sunflower line B770, WT; [7]): 18.20 ^a % | Phytotoxicity Index (PI) (0-9) ([3]; 1X (5g ai./ha)): 8.70 ^d | Dry Matter accumulation (DMA) ([3]; 1X (5g ai./ha)): 30.39 ^b % | Mean Height Reduction (PH) ([3]; 1X (5g ai./ha)): 21.55 ^a % | Phytotoxicity Index (PI) (0-9) ([3]; 2X (10 g ai./ha)): 9.00 ^d | Dry Matter accumulation (DMA) ([3]; 2X (10 g ai./ha)): 20.45 ^a % | Mean Height Reduction (PH) ([3]; 2X (10 g ai./ha)): 21.70 ^a % | Phytotoxicity Index (PI) (0-9) ([4]; 1X (5g ai./ha)): 8.25 ^b | Dry Matter accumulation (DMA) ([4]; 1X (5g ai./ha)): 25.40 ^ab % | Mean Height Reduction (PH) ([4]; 1X (5g ai./ha)): 19.47 ^a % | Phytotoxicity Index (PI) (0-9) ([4]; 2X (10 g ai./ha)): 8.5 ^c | Dry Matter accumulation (DMA) ([4]; 2X (10 g ai./ha)): 18.80 ^a % | Mean Height Reduction (PH) ([4]; 2X (10 g ai./ha)): 18.73 ^a % | Phytotoxicity Index (PI) (0-9) ([5]; 1X (5g ai./ha)): 9.00 ^d | Dry Matter accumulation (DMA) ([5]; 1X (5g ai./ha)): 25.73 ^ab % | Mean Height Reduction (PH) ([5]; 1X (5g ai./ha)): 21.39 ^a % | Phytotoxicity Index (PI) (0-9) ([5]; 2X (10 g ai./ha)): 9.00 ^d | Dry Matter accumulation (DMA) ([5]; 2X (10 g ai./ha)): 20.69 ^a % | Mean Height Reduction (PH) ([5]; 2X (10 g ai./ha)): 21.17 ^a % | Phytotoxicity Index (PI) (0-9) ([6]; 1X (5g ai./ha)): 0.00 ^a | Dry Matter accumulation (DMA) ([6]; 1X (5g ai./ha)): 74.4% and 74.36 ^c % | Mean Height Reduction (PH) ([6]; 1X (5g ai./ha)): 77.04 ^b % | Dry Matter accumulation (DMA) ([6]; 2X (10 g ai./ha)): 72.66 ^c % | Mean Height Reduction (PH) ([6]; 2X (10 g ai./ha)): 62% and 61.99 ^b %
